Consider 1 compound from patent US6569883B1, “Medicaments” (Glaxo Group Limited, priority 1985, dated 2003).

Holding throughout (format): in vivo
In one experiment the test system is guinea-pigs. Put plainly: Gastric emptying in guinea-pigs (passage of barium sulphate spheres, X-ray location). As to conditions: guinea pig. As to the method:
Test compound: 1,2,3,9-tetrahydro-9-methyl-3-[(2-methyl-1H-imidazol-1-yl)methyl]-4H-carbazol-4-one hydrochloride dihydrate. The effect of the test compound on gastric emptying was determined in guinea-pigs by following the progress of polystyrene-coated barium sulphate spheres (1 mm diameter) through the gut. The experimental method was based on that described by B. Costall et. al., Eur. J. Pharmacol 91, 197-205, 1983 and B. Cox et. al., Br. J. Pharmacol. 70, 104, 1980.
The spheres (approximatley 30 in number) were administered orally in 0.2 ml carboxymethylcellulose with 0.05 ml glycerine. At the same time, the test compound was administered intraperitoneally at doses of 0.001, 0.01 and 0.1 mg/kg. The control animals received saline, administered intraperitoneally, in place of the test compound. Passage of the spheres through the gut was monitored at 30-60 minute intervals over a period of 2 hours by X-ray location. The number of spheres leaving the stomach was recorded and expressed as a percentage of the total.

For experiment [1], the system named is ferrets. Put plainly: Cisplatin-induced emesis in ferrets, test compound i.v. As to conditions: ferret. The procedure:
Both the test compound and cisplatin were prepared and administered in normal saline. The dose of test compound was calculated as the free base.
Emesis was induced in groups of 6 male ferrets weighing between 1.5-2 kg, by intravenous administration of cisplatin at a dose of 10 mg/kg. The onset of emesis occurred between 38 and 75 minutes after injection and over a period of 2 hours the number of vomits/retches (episodes) was in the range 30-62 (average 42±5 vomits/retches per 2 h). Behavioural changes characteristic of emesis were also noted.
The test compound was administered to groups of 6 male ferrets (1.5-2 kg) by intravenous administration at doses of 0.01, 0.1 and 1 mg/kg, immediately prior to administration of cisplatin as described above.

Experiment [2] concerns ferrets. Put plainly: Cisplatin-induced emesis in ferrets, test compound i.p. As to conditions: ferret, cisplatin 9 mg/kg i.p. + test compound 1 mg/kg i.p. 30 minutes before and 1 hour after cisplatin. As to the method:
Thus cisplatin was administered intraperitoneally to a group of 4 male ferrets at a dose of 9 mg/kg, and the time to onset of emesis and the number of emetic episodes were recorded. In a second group of four male ferrets the test compound was administered at a dose of 1 mg/kg i.p. 30 minutes before and 1 hour after intraperitoneal administration of cisplatin.

Where [3] appears, read: cisplatin 10 mg/kg i.v. + test compound 0.01 mg/kg i.v.

Consider `Cc1nccn1CC1CCc2c(c3ccccc3n2C)C1=O.Cl.O.O` (stereo not drawn) [test compound, 1,2,3,9-tetrahydro-9-methyl-3-[(2-methyl-1H-imidazol-1-yl)methyl]-4H-carbazol-4-one hydrochloride dihydrate], for which the “Mean % Increase in gastric emptying (± s.e.)” value with guinea-pigs (0.001 mg/kg i.p., 1 hour) amounted to 21 ± 8.7%; with guinea-pigs (0.001 mg/kg i.p., 2 hours), 57 ± 10.5%; in the experiment on guinea-pigs (0.01 mg/kg i.p., 1 hour), 33 ± 3.6%; with guinea-pigs (0.01 mg/kg i.p., 2 hours), 76.5 ± 11.2%; in the experiment on guinea-pigs (0.1 mg/kg i.p., 1 hour) it was 47 ± 7.6%; in the experiment on guinea-pigs (0.1 mg/kg i.p., 2 hours), 68 ± 5.0%. The Duration of emesis in the experiment on ferrets [1] (setting [3]) was 1 h. The Intensity of emesis with ferrets [1] (setting [3]) turned out to be 17 ± 2.9 episodes 2 h. Also, the Onset of emesis with ferrets [1] (setting [3]) fell in the range of 89 to 109 min. The “Emesis and behavioural changes” value with ferrets [1] (cisplatin 10 mg/kg i.v. + test compound 0.1 mg/kg i.v.) is “Emesis and behavioural changes were completely”; with ferrets [1] (cisplatin 10 mg/kg i.v. + test compound 1 mg/kg i.v.) it was “Emesis and behavioural changes were completely”. Also, in the experiment on ferrets [2], the “Emetic response (onset of emesis, emetic episodes, retches)” value is listed as “emetic response completely”.
